Assay results as given in ChEMBL document CHEMBL5291721, “A preclinical secondary pharmacology resource illuminates target-adverse drug reaction associations of marketed drugs” (Nat Commun, 2023).

Columns and labels:
[1] = biological target: Vascular endothelial growth factor receptor 2 (Homo sapiens, UniProt P35968); format: functional
[2] = biological target: 3',5'-cyclic-AMP phosphodiesterase 4A (Homo sapiens, UniProt P27815); format: functional
[3] = biological target: T1, Muscarinic acetylcholine receptor M1 (Homo sapiens, UniProt P11229); format: functional, cell-based
T1 sequence (P11229 whole entry): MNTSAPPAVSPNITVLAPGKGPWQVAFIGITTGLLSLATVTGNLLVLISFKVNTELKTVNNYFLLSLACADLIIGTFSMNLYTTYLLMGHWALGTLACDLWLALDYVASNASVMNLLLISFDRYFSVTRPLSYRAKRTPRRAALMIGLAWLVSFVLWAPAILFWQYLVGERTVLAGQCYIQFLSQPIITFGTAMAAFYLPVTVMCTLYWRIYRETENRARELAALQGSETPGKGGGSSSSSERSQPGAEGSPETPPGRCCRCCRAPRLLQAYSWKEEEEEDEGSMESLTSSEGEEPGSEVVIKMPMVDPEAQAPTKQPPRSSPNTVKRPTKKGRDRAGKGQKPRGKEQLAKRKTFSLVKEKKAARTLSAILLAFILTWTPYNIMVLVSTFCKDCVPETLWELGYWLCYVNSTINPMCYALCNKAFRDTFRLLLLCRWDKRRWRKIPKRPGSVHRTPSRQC

[4] = biological target: T2, Alpha-2A adrenergic receptor (Homo sapiens, UniProt P08913)
T2 sequence (P08913 whole entry): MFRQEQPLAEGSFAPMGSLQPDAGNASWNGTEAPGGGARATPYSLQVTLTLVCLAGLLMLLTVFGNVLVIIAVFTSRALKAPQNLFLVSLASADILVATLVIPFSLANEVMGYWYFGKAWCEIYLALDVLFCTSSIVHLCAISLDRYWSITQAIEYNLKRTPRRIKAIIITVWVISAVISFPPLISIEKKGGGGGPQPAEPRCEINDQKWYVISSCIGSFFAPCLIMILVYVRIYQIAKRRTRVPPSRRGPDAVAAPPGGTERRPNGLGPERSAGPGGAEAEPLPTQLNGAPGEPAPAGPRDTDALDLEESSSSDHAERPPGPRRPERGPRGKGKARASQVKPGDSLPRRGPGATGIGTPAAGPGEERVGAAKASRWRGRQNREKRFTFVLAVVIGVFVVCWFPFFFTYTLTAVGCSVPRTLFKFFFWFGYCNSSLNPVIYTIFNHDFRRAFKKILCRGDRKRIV

[5] = biological target: Prostaglandin G/H synthase 1 (Homo sapiens, UniProt P23219); format: functional
[6] = biological target: Sodium-dependent serotonin transporter (Homo sapiens, UniProt P31645)
Thromboxane A2 receptor = biological target: T3, Thromboxane A2 receptor (Homo sapiens, UniProt P21731); format: functional, cell-based
T3 sequence (P21731 whole entry): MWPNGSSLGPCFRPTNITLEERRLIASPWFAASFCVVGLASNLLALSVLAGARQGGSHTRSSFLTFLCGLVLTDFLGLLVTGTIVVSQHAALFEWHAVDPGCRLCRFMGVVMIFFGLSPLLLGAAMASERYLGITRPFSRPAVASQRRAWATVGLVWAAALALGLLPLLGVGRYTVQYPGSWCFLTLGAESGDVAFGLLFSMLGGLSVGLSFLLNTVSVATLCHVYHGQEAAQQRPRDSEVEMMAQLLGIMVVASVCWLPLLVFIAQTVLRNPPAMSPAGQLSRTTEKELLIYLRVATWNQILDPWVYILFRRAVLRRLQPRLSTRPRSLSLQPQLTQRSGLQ

[7] = biological target: T1, Muscarinic acetylcholine receptor M1; format: functional, cell-based; remark: listed apart in the source
[8] = biological target: T4, Muscarinic acetylcholine receptor M2 (Homo sapiens, UniProt P08172)
T4 sequence (P08172 whole entry): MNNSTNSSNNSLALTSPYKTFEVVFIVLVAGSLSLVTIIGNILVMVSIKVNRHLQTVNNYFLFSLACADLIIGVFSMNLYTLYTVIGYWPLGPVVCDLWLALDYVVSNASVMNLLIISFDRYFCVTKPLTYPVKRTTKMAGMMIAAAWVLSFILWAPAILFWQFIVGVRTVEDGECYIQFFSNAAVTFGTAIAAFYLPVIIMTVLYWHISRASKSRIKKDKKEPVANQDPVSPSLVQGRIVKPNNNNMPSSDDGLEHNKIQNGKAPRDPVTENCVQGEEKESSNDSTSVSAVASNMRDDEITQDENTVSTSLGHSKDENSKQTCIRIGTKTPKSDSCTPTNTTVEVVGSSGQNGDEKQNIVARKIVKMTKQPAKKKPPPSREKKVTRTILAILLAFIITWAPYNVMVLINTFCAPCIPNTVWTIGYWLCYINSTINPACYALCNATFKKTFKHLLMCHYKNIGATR

Mu-type opioid receptor = Mu-type opioid receptor (Homo sapiens, UniProt P35372)
[9] = biological target: Sodium-dependent noradrenaline transporter (Homo sapiens, UniProt P23975)
[10] = biological target: T5, Alpha-1A adrenergic receptor (Homo sapiens, UniProt P35348); format: functional, cell-based
T5 sequence (P35348 whole entry): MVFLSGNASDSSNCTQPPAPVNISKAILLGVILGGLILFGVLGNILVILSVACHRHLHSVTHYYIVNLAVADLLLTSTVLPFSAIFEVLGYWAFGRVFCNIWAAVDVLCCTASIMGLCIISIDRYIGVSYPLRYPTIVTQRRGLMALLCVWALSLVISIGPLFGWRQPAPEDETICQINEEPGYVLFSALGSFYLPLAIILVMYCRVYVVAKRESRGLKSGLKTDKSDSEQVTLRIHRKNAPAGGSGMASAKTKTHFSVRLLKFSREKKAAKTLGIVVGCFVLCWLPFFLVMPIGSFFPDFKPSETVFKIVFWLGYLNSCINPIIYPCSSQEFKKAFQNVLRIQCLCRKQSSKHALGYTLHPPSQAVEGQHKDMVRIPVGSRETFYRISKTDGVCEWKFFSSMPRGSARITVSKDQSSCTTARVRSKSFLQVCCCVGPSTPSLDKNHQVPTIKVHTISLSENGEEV
Also: assay procedure not described here.

Sodium-dependent serotonin transporter, sequence (P31645 whole entry): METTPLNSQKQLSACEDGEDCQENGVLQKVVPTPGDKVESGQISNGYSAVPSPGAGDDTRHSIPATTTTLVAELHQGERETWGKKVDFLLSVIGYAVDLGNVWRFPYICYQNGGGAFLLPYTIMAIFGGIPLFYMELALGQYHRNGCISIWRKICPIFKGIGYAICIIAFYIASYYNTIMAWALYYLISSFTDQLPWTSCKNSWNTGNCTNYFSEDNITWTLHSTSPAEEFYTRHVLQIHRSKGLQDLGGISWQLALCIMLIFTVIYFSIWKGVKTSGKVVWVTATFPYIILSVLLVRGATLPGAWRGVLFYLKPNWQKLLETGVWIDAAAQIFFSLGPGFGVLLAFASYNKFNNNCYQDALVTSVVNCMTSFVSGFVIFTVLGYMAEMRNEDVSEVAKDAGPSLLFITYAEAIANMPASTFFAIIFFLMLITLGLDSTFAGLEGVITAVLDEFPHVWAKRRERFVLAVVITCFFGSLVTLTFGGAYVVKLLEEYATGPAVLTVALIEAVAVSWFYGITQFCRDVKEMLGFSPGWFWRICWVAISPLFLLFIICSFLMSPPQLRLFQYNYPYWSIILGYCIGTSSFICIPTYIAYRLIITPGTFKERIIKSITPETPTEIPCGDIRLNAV
Mu-type opioid receptor, sequence (P35372 whole entry): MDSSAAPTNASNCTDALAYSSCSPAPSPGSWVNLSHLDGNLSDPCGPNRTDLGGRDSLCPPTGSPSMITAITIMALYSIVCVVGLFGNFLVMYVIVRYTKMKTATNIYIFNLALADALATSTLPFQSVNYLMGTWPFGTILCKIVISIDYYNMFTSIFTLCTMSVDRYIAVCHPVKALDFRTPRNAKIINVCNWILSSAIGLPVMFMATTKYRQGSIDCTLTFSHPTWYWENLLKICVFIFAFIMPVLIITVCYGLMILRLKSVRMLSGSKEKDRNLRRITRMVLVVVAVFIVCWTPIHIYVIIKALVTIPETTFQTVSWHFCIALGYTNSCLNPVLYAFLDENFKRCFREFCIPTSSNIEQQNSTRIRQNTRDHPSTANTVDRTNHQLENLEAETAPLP
Sodium-dependent noradrenaline transporter, sequence (P23975 whole entry): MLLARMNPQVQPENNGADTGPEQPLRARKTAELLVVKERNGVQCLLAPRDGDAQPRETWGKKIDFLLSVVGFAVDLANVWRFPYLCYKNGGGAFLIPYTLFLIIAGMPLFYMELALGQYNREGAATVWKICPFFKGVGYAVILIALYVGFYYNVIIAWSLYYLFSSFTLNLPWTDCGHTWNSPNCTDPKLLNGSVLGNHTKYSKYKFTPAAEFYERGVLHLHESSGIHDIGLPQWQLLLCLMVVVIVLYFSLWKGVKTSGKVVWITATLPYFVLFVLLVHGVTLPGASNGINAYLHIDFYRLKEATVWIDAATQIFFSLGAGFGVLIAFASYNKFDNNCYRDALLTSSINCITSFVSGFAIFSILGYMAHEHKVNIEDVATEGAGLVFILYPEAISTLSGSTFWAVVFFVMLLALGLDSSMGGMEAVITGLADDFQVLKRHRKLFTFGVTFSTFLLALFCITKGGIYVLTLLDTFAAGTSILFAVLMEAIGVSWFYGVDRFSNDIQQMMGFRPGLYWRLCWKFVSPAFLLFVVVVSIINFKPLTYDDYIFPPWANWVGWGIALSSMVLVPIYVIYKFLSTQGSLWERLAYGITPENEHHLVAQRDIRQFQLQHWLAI
Vascular endothelial growth factor receptor 2, sequence (P35968 whole entry): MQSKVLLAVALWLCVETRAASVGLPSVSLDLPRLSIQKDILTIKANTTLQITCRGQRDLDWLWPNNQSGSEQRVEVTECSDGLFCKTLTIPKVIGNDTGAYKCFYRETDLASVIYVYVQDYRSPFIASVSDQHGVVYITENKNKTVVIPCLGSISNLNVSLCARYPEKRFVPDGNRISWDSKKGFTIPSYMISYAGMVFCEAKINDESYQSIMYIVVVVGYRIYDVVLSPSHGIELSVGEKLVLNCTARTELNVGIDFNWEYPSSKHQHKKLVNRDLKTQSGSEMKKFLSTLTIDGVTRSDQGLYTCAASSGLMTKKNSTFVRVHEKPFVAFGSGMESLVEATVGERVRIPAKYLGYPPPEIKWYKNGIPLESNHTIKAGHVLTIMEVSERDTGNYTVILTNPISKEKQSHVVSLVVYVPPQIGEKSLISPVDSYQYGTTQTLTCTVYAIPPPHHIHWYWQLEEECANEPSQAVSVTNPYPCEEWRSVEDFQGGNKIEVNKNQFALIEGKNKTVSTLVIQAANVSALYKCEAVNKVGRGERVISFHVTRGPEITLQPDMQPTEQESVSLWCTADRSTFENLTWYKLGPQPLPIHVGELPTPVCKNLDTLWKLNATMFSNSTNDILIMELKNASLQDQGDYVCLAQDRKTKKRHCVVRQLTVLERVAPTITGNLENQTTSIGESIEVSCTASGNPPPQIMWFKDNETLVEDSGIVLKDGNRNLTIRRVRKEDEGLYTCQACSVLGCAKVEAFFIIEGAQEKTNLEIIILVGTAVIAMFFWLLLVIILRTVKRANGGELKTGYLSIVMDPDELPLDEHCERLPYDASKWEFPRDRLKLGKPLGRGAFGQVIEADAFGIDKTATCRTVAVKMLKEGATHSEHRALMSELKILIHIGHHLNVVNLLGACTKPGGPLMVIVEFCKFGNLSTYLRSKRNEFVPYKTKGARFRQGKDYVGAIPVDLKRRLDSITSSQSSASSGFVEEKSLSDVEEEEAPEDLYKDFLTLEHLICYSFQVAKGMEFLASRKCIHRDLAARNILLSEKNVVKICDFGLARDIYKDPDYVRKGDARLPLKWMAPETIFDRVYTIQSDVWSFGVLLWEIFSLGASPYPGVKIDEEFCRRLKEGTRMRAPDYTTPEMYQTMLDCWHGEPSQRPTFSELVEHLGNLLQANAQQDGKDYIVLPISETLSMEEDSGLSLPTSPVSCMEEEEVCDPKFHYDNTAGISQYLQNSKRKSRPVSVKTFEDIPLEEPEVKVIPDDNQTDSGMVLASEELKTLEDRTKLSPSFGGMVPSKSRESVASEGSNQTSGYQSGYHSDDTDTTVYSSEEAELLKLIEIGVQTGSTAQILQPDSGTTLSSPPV
Prostaglandin G/H synthase 1, sequence (P23219 whole entry): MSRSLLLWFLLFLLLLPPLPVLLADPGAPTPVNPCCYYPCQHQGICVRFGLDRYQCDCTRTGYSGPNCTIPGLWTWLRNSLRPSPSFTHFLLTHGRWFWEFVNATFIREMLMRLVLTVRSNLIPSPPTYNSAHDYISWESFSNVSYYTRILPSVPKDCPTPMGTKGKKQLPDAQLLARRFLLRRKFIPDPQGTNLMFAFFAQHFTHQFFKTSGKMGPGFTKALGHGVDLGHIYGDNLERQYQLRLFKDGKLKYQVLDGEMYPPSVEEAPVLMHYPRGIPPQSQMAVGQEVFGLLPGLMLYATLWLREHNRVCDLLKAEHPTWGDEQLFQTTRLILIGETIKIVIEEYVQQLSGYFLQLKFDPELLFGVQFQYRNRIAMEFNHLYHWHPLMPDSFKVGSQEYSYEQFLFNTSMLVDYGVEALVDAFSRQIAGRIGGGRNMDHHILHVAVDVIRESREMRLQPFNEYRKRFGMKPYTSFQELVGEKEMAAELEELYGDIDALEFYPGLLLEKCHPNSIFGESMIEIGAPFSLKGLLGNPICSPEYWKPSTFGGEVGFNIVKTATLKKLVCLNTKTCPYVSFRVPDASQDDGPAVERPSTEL
3',5'-cyclic-AMP phosphodiesterase 4A, sequence (P27815 whole entry): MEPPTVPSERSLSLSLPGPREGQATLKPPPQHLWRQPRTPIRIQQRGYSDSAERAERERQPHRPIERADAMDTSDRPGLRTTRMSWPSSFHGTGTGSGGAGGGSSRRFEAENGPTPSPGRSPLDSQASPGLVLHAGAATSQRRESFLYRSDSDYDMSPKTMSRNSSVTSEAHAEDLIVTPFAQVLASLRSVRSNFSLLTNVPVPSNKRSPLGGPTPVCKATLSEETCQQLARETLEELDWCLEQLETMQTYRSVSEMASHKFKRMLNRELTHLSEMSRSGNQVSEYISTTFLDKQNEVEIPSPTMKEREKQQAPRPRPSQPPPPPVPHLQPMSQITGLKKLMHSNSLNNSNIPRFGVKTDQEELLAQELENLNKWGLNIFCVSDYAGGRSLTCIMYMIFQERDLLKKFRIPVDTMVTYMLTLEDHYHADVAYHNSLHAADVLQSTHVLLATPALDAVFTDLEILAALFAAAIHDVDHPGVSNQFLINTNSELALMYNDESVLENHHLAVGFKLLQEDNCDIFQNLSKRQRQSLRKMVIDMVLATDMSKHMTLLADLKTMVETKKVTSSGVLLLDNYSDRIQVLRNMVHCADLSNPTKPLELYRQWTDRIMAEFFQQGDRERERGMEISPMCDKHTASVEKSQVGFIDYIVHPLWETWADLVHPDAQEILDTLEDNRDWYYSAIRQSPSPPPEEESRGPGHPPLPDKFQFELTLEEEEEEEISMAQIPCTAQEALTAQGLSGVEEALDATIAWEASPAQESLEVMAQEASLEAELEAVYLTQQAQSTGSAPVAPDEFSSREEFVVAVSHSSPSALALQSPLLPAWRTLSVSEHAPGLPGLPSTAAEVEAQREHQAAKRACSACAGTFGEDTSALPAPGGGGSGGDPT

SMILES	AC50 [1] [µM]	AC50 [2] [µM]	AC50 [3] [µM]	AC50 [4] [µM]	AC50 [5] [µM]	AC50 [6] [µM]	AC50 (Thromboxane A2 receptor) [µM]	AC50 [7] [µM]	AC50 [8] [µM]	AC50 (Mu-type opioid receptor) [µM]	AC50 [9] [µM]	AC50 [10] [µM]
Nc1ccncc1N [AMIFAMPRIDINE]	> 30	> 30	> 30	> 30	> 30	> 30	> 30	> 30	> 30	> 30	> 30	> 30
N=C1CCCN1Cc1[nH]c(=O)[nH]c(=O)c1Cl	> 30	> 30	> 30	> 30	> 30	> 30	> 30	> 30	> 30	> 30	> 30	> 30
O=C(Nc1ccc(Cl)cc1)Nc1ccc(Cl)c(Cl)c1 [TRICLOCARBAN]	> 30	25.4	> 30	> 30	> 30	> 30	> 30	0.702	> 30	4.85	0.863	2.44
CC1=C(/C=C/C(C)=C/C=C/C(C)=C/C=C/C=C(C)/C=C/C=C(C)/C=C/C2=C(C)CCCC2(C)C)C(C)(C)CCC1 [BETA CAROTENE]	> 30	> 30	> 30	> 30	8.1	> 30	> 30	> 30	> 30	> 30	> 30	> 30
O=C(O)c1ccccc1C(=O)Nc1ccc(S(=O)(=O)Nc2nccs2)cc1 [PHTHALYLSULFATHIAZOLE]	> 30	> 30	> 30	> 30	8.95	> 30	> 30	> 30	> 30	> 30	> 30	> 30
C[N+]1(CCCCC[N+]2(C)CCCC2)CCCC1 [PENTOLINIUM]	> 30	> 30	> 30	> 30	> 30	> 30	> 30	> 30	> 30	> 30	> 30	> 30
CC(CNC(=O)c1ccccc1)C(=O)OCC(=O)[C@@]12OC(C)(C)O[C@@H]1C[C@H]1[C@@H]3CCC4=CC(=O)C=C[C@]4(C)[C@@]3(F)[C@@H](O)C[C@@]12C (stereo not given in full) [TRIAMCINOLONE BENETONIDE]	> 30	> 30	> 30	> 30	> 30	> 30	> 30	> 30	> 30	> 30	> 30	> 30
CC(C)(C)CC(C)(C)c1ccc(O)c(Cc2ccc(Cl)cc2Cl)c1 [CLOFOCTOL]	> 30	5.93	> 30	> 30	2.56	5.43	> 30	> 10	> 10	22	3.4	> 30
NNc1nnc(NN)c2ccccc12 [DIHYDRALAZINE]	> 30	> 30	> 30	> 30	0.344	> 30	> 30	> 30	> 30	25.6	> 30	> 30
CC(C)(C)NCC(O)COc1cccc2c1SCCC2 (stereo not given) [TERTATOLOL]	> 30	> 30	> 30	6.6	> 30	17.3	> 30	> 30	> 30	> 30	29.6	> 30
CC(=O)OCC1=C(C(=O)O)N2C(=O)[C@@H](NC(=O)[C@H](N)c3ccccc3)[C@H]2SC1 [CEPHALOGLYCIN]	> 30	> 30	> 30	> 30	5.93	> 30	> 30	> 30	> 30	> 30	> 30	> 30
CCC(C)(C)c1ccc(CC(C)CN2C[C@@H](C)O[C@@H](C)C2)cc1 (stereo not given in full) [AMOROLFINE]	> 30	> 30	> 30	> 30	> 30	> 30	> 30	10.8	> 30	> 30	> 30	> 30
CCOC(=O)[C@H](CCc1ccccc1)N[C@@H](C)C(=O)N1CC2(C[C@H]1C(=O)O)SCCS2	> 10	> 30	> 30	> 30	> 30	> 30	> 30	> 30	> 30	> 30	> 30	> 30
NC(=O)C[C@H](N)C(=O)O [ASPARAGINE]	> 30	> 30	> 30	> 30	> 30	> 30	> 30	> 30	> 30	> 30	> 30	> 30
CCCCOC(=O)C(=O)[C@H]1[C@H](C)C[C@H]2[C@@H]3C[C@H](F)C4=CC(=O)C=C[C@]4(C)[C@H]3[C@@H](O)C[C@@]21C [FLUOCORTIN BUTYL]	> 30	> 30	> 30	> 30	> 30	> 30	> 30	19.8	> 30	> 30	29.5	13.1
